Data reported in patent publication US20250144178A1, “PHARMACEUTICAL COMPOSITION FOR CANCER TREATMENT COMPRISING FUSION PROTEIN INCLUDING IL-12 AND ANTI-FAP ANTIBODY AND ANTICANCER AGENT” (KANAPH THERAPEUTICS INC., priority 2022, published 2025).

Key:
[1] = system: IL-12 receptor of human T cells; test: p-STAT4 signaling ability in human T cells (AlphaLISA); type: cell-based; settings: anti-CD3 activated human T cells, 2 hours, FIG. 19; read-out: half maximal effective concentration (EC50), p-STAT4
Method: In order to identify whether when IL-12 binds to the IL-12 receptor of human T cells, IL-12 initiate signaling by inducing phosphorylation of STAT4, a signaling mediator, the human T cells activated with anti-CD3 (OKT3, Invitrogen) were analyzed using the AlphaLISA SureFire Ultra p-STAT4 (Tyr693) Assay Kit (PerkinElmer, Massachusetts, USA).
Specifically, human proteins IL-12, T1.01, T1.02, T1.03 and T1.12 were suspended at 100 ng/ml and diluted by serial dilution. The human T cells activated with anti-CD3 (OKT3, Invitrogen) were treated with the diluted recombinant human IL-12, T1.01, T1.02, T1.03 and T1.12. After 2 hours of treatment, the cells were lysed and treated with a reagent (PerkinElmer) that detects p-STAT4 (phosphorylated STAT4). pSTAT4 was detected at an excitation wavelength of 680 nm and an emission wavelength of 615 nm with a spectrophotometer.

[2] = system: human T cells; test: IFN-γ secretion in human T cells (ELISA); type: cell-based; settings: anti-CD3 activated human T cells, 48 hours, FIG. 21
Method: For cytokine measurement, enzyme-linked immunosorbent assay (ELISA, R&D systems) was performed on the supernatant stored at −20° C. in the following steps:
(i) The capture antibody was diluted according to the Certificate of Analysis (CoA) and coated on a 96-well plate for 24 hours.
(ii) The wells were washed with a wash solution, and then blocking was performed for 1 hour with 1% BSA (Bovine serum albumin, Sigma) solution.
(iii) The wells were washed with a wash solution, and then the samples were treated for 2 hours.
(iv) The wells were washed with a wash solution, and then the detection antibody was diluted according to the Certificate of Analysis and aliquoted into the wells, and then the wells were treated therewith for 2 hours.
(v) The wells were washed with a wash solution, and then treated with streptavidin-HRP for 20 minutes.
(vi) The wells were washed with a wash solution, and then treated with a substrate solution for 20 minutes.
(vii) The wells were treated with a stop solution, and the absorbance was measured at 450 nm.
Specifically, the human T cells activated with anti-CD3 (OKT3, Invitrogen) were diluted to 5×10^5 cells/ml and dispensed in a 96-well plate at 200 μl/well. Recombinant human IL-12, T1.12, T1.01, T1.02 and T1.03 were diluted to 10 nM and dispensed at 20 μl/well. […]

[3] = system: HEK-Blue IL-12 cells; test: Signaling ability in IL-12 recognizing cells (STAT4 inducible SEAP reporter); type: cell-based, human; settings: serial dilution from 4 nM, 24 hours, FIG. 18
Method: The HEK-Blue IL-12 cell line transformed with the IL-12 receptor gene and the STAT4 inducible SEAP reporter gene into HEK293 cells, which are human embryonic kidney fibroblasts, was obtained from Invivogen (San Diego, USA). The HEK-Blue IL-12 cells were maintained in DMEM (GIBCO) containing 10% FBS (GIBCO), 100 μg/ml Normocin and 1×HEK-Blue selection.
Specifically, the HEK-Blue IL-12 cell line, which is an IL-12 recognizing cell, was diluted to 2.8×10^5 cells/ml and dispensed at 180 μl/well. Recombinant human IL-12, T1.01m, T1.02m, T1.03m and T1.12m were suspended at 4 nM and diluted by serial dilution. HEK-Blue IL-12 cells were treated with the diluted recombinant human IL-12, T1.01m, T1.02m, T1.03m and T1.12m. After 24 hours of treatment, the cell supernatant was collected and mixed with QUANTI-Blue Solution (Invivogen) in a 96-well plate. The reporter expression level was measured at 620 nm using a spectrophotometer (Thermo Fisher).

EC50 [1]: 8.95 pM
Substance: recombinant human IL-12: Recombinant human IL-12 used as comparator in signaling and IFN-γ secretion tests [reference compound]
average IFN-γ in supernatant [2]: 1,640 pg/ml
IL-12 recognition / STAT4 reporter gene expression (620 nm absorbance) [3]: IL-12 was recognized, and STAT4 expressed a reporter gene by inducing phosphorylation
